Measurements reported in patent US20110060012A1, “4-[3-(ARYLOXY)BENZYLIDENE]-3-METHYL PIPERIDINE 5-MEMBERED ARYL CARBOXAMIDE COMPOUNDS USEFUL AS FAAH INHIBITORS” (Pfizer Inc., priority 2008, published 2011).

Molecular target: T1, Human FAAH (Homo sapiens, UniProt O00519)
T1 construct: made in house
T1 sequence (O00519 1-579): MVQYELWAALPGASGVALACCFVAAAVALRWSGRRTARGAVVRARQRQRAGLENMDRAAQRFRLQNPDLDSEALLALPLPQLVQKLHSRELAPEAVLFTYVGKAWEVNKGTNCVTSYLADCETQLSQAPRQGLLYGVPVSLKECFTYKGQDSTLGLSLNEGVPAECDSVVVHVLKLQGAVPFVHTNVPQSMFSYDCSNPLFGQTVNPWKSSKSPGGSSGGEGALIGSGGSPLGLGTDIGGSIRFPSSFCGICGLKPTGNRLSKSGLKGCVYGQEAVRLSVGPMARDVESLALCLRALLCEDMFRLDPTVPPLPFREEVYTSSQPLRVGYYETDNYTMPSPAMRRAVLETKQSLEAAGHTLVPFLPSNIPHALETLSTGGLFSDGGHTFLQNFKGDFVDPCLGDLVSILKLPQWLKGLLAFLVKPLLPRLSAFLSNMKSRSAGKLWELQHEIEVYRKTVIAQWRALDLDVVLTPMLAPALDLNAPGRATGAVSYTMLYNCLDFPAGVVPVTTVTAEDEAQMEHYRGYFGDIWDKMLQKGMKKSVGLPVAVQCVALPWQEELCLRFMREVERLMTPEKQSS
Assay: FAAH enzyme assay (glutamate dehydrogenase-coupled, oleamide substrate)
Type: biochemical
Settings: human FAAH 1-4 nM, pH 7.4, 30° C., absorbance at 340 nm over 90 min, read-out: hFAAH Kinact/Ki
Description: A FAAH enzyme assay may be carried out as described in W02006/085196 in 384-well clear polystyrene plates in a total volume of 50 μl per well. All percents are by volume. To each well was placed the reaction mixture (40 μl) containing 1-4 nM FAAH, 50 mM NaPi, pH 7.4, 3 mM α-ketoglutarate, 0.15 mM NADH, 7.5 U/ml glutamate dehydrogenase, 2 mM ADP, 1 mM EDTA, and 0.1% Triton X-100 (The concentration shown for each component is the final concentration in the assay). To this mixture was added 5 μl of a compound of Examples 1 to 20 at various concentrations prepared in 50% DMSO (or 5 μl 50% DMSO for controls). This was immediately followed by the addition of 5 μl oleamide (500 μM) dissolved in 75% EtOH/25% DMSO and the reaction mixture is mixed for 1.5 min. The final concentrations of DMSO and EtOH in the assay were each 7.5%. The reactions was then incubated at 30° C. and the absorbance at 340 nm was collected over a period of 90 min with readings taken in 30-second intervals using SpectraMax Plus^384 Microplate Spectrophotometer (Molecular Devices, Sunnyvale, Calif.). Human FAAH used in the assay was prepared as described in the patent application WO 2006/067613. The purity of the enzyme used was greater than 98% based on an analysis by SDS-polyacrylamide gel electrophoresis followed by Coomassie Blue staining.
Initial velocity data (V) is obtained from the slopes of the initial progressive curves. They are plotted as a function of substrate concentration and fit to the Michaelis-Menten equation (1) using Prism (GraphPad Software, Inc., San Diego, Calif.) software to obtain Km and Vmax values.
To obtain potencies of irreversible inhibitors, progressive curves consistent with first order inhibition kinetics (two-step irreversible inhibition mechanism) are fit to equation (2) by nonlinear least squares regressions to determine kobs values at each inhibitor concentration, where [P]t is the absorbance at time t, V0 is a constant related to the steady state rate of the uninhibited reaction, and kobs is the first order rate constant for enzyme inactivation. […]

Cc1noc(NC(=O)N2CC/C(=C\c3cccc(Oc4ccc(C(F)(F)F)cn4)c3)C(C)C2)c1C (single isomer, unassigned) [Example 1, (4E)-N-(3,4-dimethylisoxazol-5-yl)-3-methyl-4-(3-{[5-(trifluoromethyl)pyridin-2-yl]oxy}benzylidene)piperidine-1-carboxamide]
kinact/KI: 624 M⁻¹ s⁻¹

Cc1oncc1NC(=O)N1CC/C(=C\c2cccc(Oc3ccc(C(F)(F)F)cn3)c2)C(C)C1 (single isomer, unassigned) [Example 2, (4E)-3-methyl-N-(5-methylisoxazol-4-yl)-4-(3-{[5-(trifluoromethyl)pyridin-2-yl]oxy}benzylidene)piperidine-1-carboxamide]
kinact/KI: 2850 M⁻¹ s⁻¹

CC1CN(C(=O)Nc2cnoc2)CC/C1=C\c1cccc(Oc2ccc(C(F)(F)F)cn2)c1 (single isomer, unassigned) [Example 3, (4E)-N-isoxazol-4-yl-3-methyl-4-(3-{[5-(trifluoromethyl)pyridin-2-yl]oxy}benzylidene)piperidine-1-carboxamide]
kinact/KI: 4350 M⁻¹ s⁻¹
